{"source": "patent US9133181B2", "about": "“Substituted 6-(4-hydroxy-phenyl)-1H-pyrazolo[3,4-b]pyridine derivatives as kinase inhibitors” (SANOFI, priority 2012, dated 2015)"}
{"target": "T1, human full-length recombinant PKC βII (Homo sapiens, UniProt P05771)", "T1 construct": "Active human full-length recombinant PKC βII; purchased Invitrogen GmbH, Darmstadt, Germany", "T1 sequence (P05771 1-673 isoform P05771-2)": "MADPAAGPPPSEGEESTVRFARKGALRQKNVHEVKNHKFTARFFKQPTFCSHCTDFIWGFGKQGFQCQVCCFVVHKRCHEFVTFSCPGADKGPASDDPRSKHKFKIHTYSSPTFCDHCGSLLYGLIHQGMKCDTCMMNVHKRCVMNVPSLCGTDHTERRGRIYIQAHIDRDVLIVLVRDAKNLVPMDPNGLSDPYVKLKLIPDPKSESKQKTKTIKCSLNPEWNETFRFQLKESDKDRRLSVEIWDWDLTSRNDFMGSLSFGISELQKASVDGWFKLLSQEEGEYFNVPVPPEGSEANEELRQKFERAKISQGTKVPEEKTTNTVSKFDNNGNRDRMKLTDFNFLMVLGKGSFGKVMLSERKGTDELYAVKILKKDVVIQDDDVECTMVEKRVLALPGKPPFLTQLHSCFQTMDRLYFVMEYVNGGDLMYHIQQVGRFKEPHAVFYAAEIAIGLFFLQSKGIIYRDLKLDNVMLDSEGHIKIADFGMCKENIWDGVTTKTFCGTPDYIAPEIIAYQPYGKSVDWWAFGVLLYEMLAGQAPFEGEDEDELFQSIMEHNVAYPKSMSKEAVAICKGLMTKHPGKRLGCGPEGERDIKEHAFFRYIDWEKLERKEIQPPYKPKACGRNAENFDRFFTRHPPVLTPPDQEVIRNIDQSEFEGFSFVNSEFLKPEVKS", "experiment": "Determination of PKC βII inhibition (Caliper mobility shift kinase assay)", "format": "biochemical", "settings": "final compound concentration 1.14 μM (±0.15 μM); 60 min incubation at 32° C.", "experimental": "Determination of PKC βII Inhibition\nPKC βII inhibition was determined according to the following protocol:\nActive human full-length recombinant PKC βII and the peptide substrate, Fluorescein-RFARKGSLRQKNV, were purchased from Invitrogen GmbH, Darmstadt, Germany. Adenosine-5′-triphosphate (ATP), bovine serum albumine (BSA), dimethylsulphoxide (DMSO), 4-(2-hydroxyethyl)piperazine-1-ethanesulfonic acid (Hepes), Triton X-100, 1,2-Dioleoyl-sn-glycerol (DAG), L-α-Phosphatidyl-L-serine (PS), calcium chloride (CaCl2), and Pluronic F-68 were purchased from Sigma-Aldrich, Munich, Germany. Magnesium chloride, 1 M sodium hydroxide solution, 1M hydrochloric acid solution and EDTA were obtained from Merck Biosciences, Darmstadt, Germany.\nTest compounds were diluted to three times the test concentration in buffer 1 (30 mM Hepes-NaOH, pH 7.4, 0.01% Pluronic F-68 and 3% (v/v) DMSO). The […] enzyme was diluted to a concentration of 30 ng/ml in buffer 2 (30 mM Hepes-NaOH, pH 7.4, 15 mM MgCl2, 150 μM CaCl2, 150 μg/ml PS, 60 μg/ml DAG, and 0.045% (w/v) Triton X-100). The peptide substrate and ATP were diluted to concentrations of 3 μM and 120 μM, respectively, in buffer 2. Two μl of the compound solution were mixed with 2 μl of the diluted enzyme in a 384-well small volume microtiter plate (Greiner, Bio-One, Frickenhausen, Germany), and the kinase reaction was initiated by addition of 2 μl of the solution containing peptide substrate and ATP. After 60 min incubation at 32° C., the reaction was stopped by addition of 20 μl of a solution containing 130 mM Hepes-NaOH, pH 7.4, 0.0195% (v/v) Brij-35, 6.5 mM EDTA, 0.13% chip coating reagent 3 (Caliper Lifescience Inc, Hopkinton, Mass.) and 6.5% (v/v) DMSO. Phosphorylation of the substrate peptide was then detected on a Caliper 3000 instrument essentially as described by Pommereau et al (J. Biomol. Screening 2004, 9(5), 409-416). Separation conditions were as follows: Pressure −0.8 psi, upstream voltage −3000 V, downstream voltage −800 V. Positive controls (buffer 1 instead of compound) and negative controls (buffer 1 instead of compound and buffer 2 instead of kinase solution) were run in parallel on each plate. Fractional turnover (R) was determined as the height of the peak of the phosphorylated peptide product divided by the sum of the unphosphorylated substrate and phosphorylated product peak heights. Percent-inhibition values for the test compounds were determined using the formula % Inhibition=100*(1−(Rcompound−Rnegative control)/(Rpositive control−Rnegative control).\nIn the following table % inhibition values observed with example compounds at a final concentration of 1.14 μM (±0.15 μM) are listed: […]", "units": {"inhibition at 1.14 µM": "%"}}
{"smiles": "CCC1(CC)CN(Cc2cc(-c3ccc(O)cc3Cl)nc3[nH]nc(C)c23)C(C)(C)CN1", "note": "[Example 59, 3-Chloro-4-[4-(5,5-diethyl-2,2-dimethyl-piperazin-1-ylmethyl)-3-methyl-1H-pyrazolo[3,4-b]pyridin-6-yl]-phenol]", "inhibition at 1.14 µM": 96}
{"smiles": "Cc1n[nH]c2nc(-c3ccc(O)cc3)cc(CNC3CCNCC3(C)C)c12", "note": "(stereo not drawn) [Example 60, 4-{4-[(3,3-Dimethyl-piperidin-4-ylamino)-methyl]-3-methyl-1H-pyrazolo[3,4-b]pyridin-6-yl}-phenol]", "inhibition at 1.14 µM": 92}
{"smiles": "Cc1n[nH]c2nc(-c3ccc(O)cc3)cc(CN3CC(C)N(Cc4cccnc4)CC3(C)C)c12", "note": "(stereo not drawn) [Example 61, 4-[3-Methyl-4-(2,2,5-trimethyl-4-pyridin-3-ylmethyl-piperazin-1-ylmethyl)-1H-pyrazolo[3,4-b]pyridin-6-yl]-phenol]", "inhibition at 1.14 µM": 84}
{"smiles": "Cc1n[nH]c2nc(-c3ccc(O)cc3)cc(CN3CC(C)N(CC4CCCO4)CC3(C)C)c12", "note": "(stereo not drawn) [Example 62, 4-{3-Methyl-4-[2,2,5-trimethyl-4-(tetrahydro-furan-2-ylmethyl)-piperazin-1-ylmethyl]-1H-pyrazolo[3,4-b]pyridin-6-yl}-phenol]", "inhibition at 1.14 µM": 99}
{"smiles": "COCCN1CC(C)(C)N(Cc2cc(-c3ccc(O)cc3)nc3[nH]nc(C)c23)CC1C", "note": "(stereo not drawn) [Example 63, 4-{4-[4-(2-Methoxy-ethyl)-2,2,5-trimethyl-piperazin-1-ylmethyl]-3-methyl-1H-pyrazolo[3,4-b]pyridin-6-yl}-phenol]", "inhibition at 1.14 µM": 97}
{"smiles": "COCCCN1CC(C)(C)N(Cc2cc(-c3ccc(O)cc3)nc3[nH]nc(C)c23)CC1C", "note": "(stereo not drawn) [Example 64, 4-{4-[4-(3-Methoxy-propyl)-2,2,5-trimethyl-piperazin-1-ylmethyl]-3-methyl-1H-pyrazolo[3,4-b]pyridin-6-yl}-phenol]", "inhibition at 1.14 µM": 94}
{"smiles": "Cc1n[nH]c2nc(-c3ccc(O)cc3F)cc(CN3CC(C)(C)N(CCC(F)(F)F)CC3(C)C)c12", "note": "[Example 65, 3-Fluoro-4-{3-methyl-4-[2,2,5,5-tetramethyl-4-(3,3,3-trifluoro-propyl)-piperazin-1-ylmethyl]-1H-pyrazolo[3,4-b]pyridin-6-yl}-phenol]", "inhibition at 1.14 µM": 88}
{"smiles": "Cc1n[nH]c2nc(-c3ccc(O)cc3F)cc(CN3CC(C)(C)N(C)CC3(C)C)c12", "note": "[Example 66, 3-Fluoro-4-[3-methyl-4-(2,2,4,5,5-penta-methyl-piperazin-1-ylmethyl)-1H-pyrazolo[3,4-b]-pyridin-6-yl]-phenol]", "inhibition at 1.14 µM": 100}
{"smiles": "COCCCN1CC(C)(C)N(Cc2cc(-c3ccc(O)cc3F)nc3[nH]nc(C)c23)CC1(C)C", "note": "[Example 67, 3-Fluoro-4-{4-[4-(3-methoxy-propyl)-2,2,5,5-tetramethyl-piperazin-1-ylmethyl]-3-methyl-1H-pyrazolo[3,4-b]pyridin-6-yl}-phenol]", "inhibition at 1.14 µM": 103}
{"smiles": "Cc1n[nH]c2nc(-c3ccc(O)cc3F)cc(CN3CC(C)(C)N(CCC4CCOCC4)CC3(C)C)c12", "note": "[Example 68, 3-Fluoro-4-(3-methyl-4-{2,2,5,5-tetramethyl-4-[2-(tetrahydro-pyran-4-yl)-ethyl]-piperazin-1-ylmethyl}-1H-pyrazolo[3,4-b]pyridin-6-yl)-phenol]", "inhibition at 1.14 µM": 101}
{"smiles": "Cc1n[nH]c2nc(-c3ccc(O)cc3F)cc(CN3CC(C)(C)N(C[C@H]4COC(C)(C)O4)CC3(C)C)c12", "note": "[Example 69, 4-{4-[4-((S)-2,2-Dimethyl-[1,3]dioxolan-4-ylmethyl)-2,2,5,5-tetramethyl-piperazin-1-ylmethyl]-3-methyl-1H-pyrazolo[3,4-b]pyridin-6-yl}-3-fluoro-phenol]", "inhibition at 1.14 µM": 92}
{"smiles": "Cc1n[nH]c2nc(-c3ccc(O)cc3F)cc(CN3CC(C)(C)N(CC4CCOCC4)CC3(C)C)c12", "note": "[Example 70, 3-Fluoro-4-{3-methyl-4-[2,2,5,5-tetramethyl-4-(tetrahydro-pyran-4-ylmethyl)-piperazin-1-ylmethyl]-1H-pyrazolo[3,4-b]pyridin-6-yl}-phenol]", "inhibition at 1.14 µM": 96}
{"smiles": "Cc1n[nH]c2nc(-c3ccc(O)cc3F)cc(CN3CC4(CCCC4)N(C)CC3(C)C)c12", "note": "[Example 71, 3-Fluoro-4-[3-methyl-4-(6,8,8-trimethyl-6,9-diaza-spiro[4.5]dec-9-ylmethyl)-1H-pyrazolo[3,4-b]pyridin-6-yl]-phenol]", "inhibition at 1.14 µM": 98}
{"smiles": "Cc1n[nH]c2nc(-c3ccc(O)cc3F)cc(CN3CC(C)(C)N(CCO)CC3(C)C)c12", "note": "[Example 72, 3-Fluoro-4-{4-[4-(2-hydroxy-ethyl)-2,2,5,5-tetramethyl-piperazin-1-ylmethyl]-3-methyl-1H-pyrazolo[3,4-b]pyridin-6-yl}-phenol]", "inhibition at 1.14 µM": 100}
{"smiles": "Cc1n[nH]c2nc(-c3ccc(O)cc3F)cc(CN3CC(C)(C)N(C[C@H](O)CO)CC3(C)C)c12", "note": "[Example 73, (S)-3-{4-[6-(2-Fluoro-4-hydroxy-phenyl)-3-methyl-1H-pyrazolo[3,4-b]pyridin-4-ylmethyl]-2,2,5,5-tetramethyl-piperazin-1-yl}-propane-1,2-diol]", "inhibition at 1.14 µM": 97}
{"smiles": "COC(=O)CN1CC(C)(C)N(Cc2cc(-c3ccc(O)cc3F)nc3[nH]nc(C)c23)CC1(C)C", "note": "[Example 74, {4-[6-(2-Fluoro-4-hydroxy-phenyl)-3-methyl-1H-pyrazolo[3,4-b]pyridin-4-ylmethyl]-2,2,5,5-tetramethyl-piperazin-1-yl}-acetic acid methyl ester]", "inhibition at 1.14 µM": 95}
{"smiles": "COCC(=O)N1CC(C)(C)N(Cc2cc(-c3ccc(O)cc3F)nc3[nH]nc(C)c23)CC1(C)C", "note": "[Example 75, 1-{4-[6-(2-Fluoro-4-hydroxy-phenyl)-3-methyl-1H-pyrazolo[3,4-b]pyridin-4-ylmethyl]-2,2,5,5-tetramethyl-piperazin-1-yl}-2-methoxy-ethanone]", "inhibition at 1.14 µM": 96}
{"smiles": "COCCC(=O)N1CC(C)(C)N(Cc2cc(-c3ccc(O)cc3F)nc3[nH]nc(C)c23)CC1(C)C", "note": "[Example 76, 1-{4-[6-(2-Fluoro-4-hydroxy-phenyl)-3-methyl-1H-pyrazolo[3,4-b]pyridin-4-ylmethyl]-2,2,5,5-tetramethyl-piperazin-1-yl}-3-methoxy-propan-1-one]", "inhibition at 1.14 µM": 95}
{"smiles": "Cc1n[nH]c2nc(-c3ccc(O)cc3F)cc(CN3CC(C)(C)N(C(=O)C4CCOC4)CC3(C)C)c12", "note": "(stereo not drawn) [Example 77, {4-[6-(2-Fluoro-4-hydroxy-phenyl)-3-methyl-1H-pyrazolo[3,4-b]pyridin-4-ylmethyl]-2,2,5,5-tetramethyl-piperazin-1-yl}-(tetrahydro-furan-3-yl)-methanone]", "inhibition at 1.14 µM": 98}
{"smiles": "CC(=O)N1CC(C)(C)N(Cc2cc(-c3ccc(O)cc3F)nc3[nH]nc(C)c23)CC1(C)C", "note": "[Example 78, 1-{4-[6-(2-Fluoro-4-hydroxy-phenyl)-3-methyl-1H-pyrazolo[3,4-b]pyridin-4-ylmethyl]-2,2,5,5-tetramethyl-piperazin-1-yl}-ethanone]", "inhibition at 1.14 µM": 97}
{"smiles": "COCC(=O)N1CCCN(Cc2cc(-c3ccc(O)cc3F)nc3[nH]nc(C)c23)CC1C", "note": "(stereo not drawn) [Example 79, 1-{4-[6-(2-Fluoro-4-hydroxy-phenyl)-3-methyl-1H-pyrazolo[3,4-b]pyridin-4-ylmethyl]-2-methyl-[1,4]diazepan-1-yl}-2-methoxy-ethanone]", "inhibition at 1.14 µM": 65}
{"smiles": "Cc1n[nH]c2nc(-c3ccc(O)cc3F)cc(CN3CC(C)(C)N(C(=O)CO)CC3(C)C)c12", "note": "[Example 80, 1-{4-[6-(2-Fluoro-4-hydroxy-phenyl)-3-methyl-1H-pyrazolo[3,4-b]pyridin-4-ylmethyl]-2,2,5,5-tetramethyl-piperazin-1-yl}-2-hydroxy-ethanone]", "inhibition at 1.14 µM": 93}
{"smiles": "COCC(=O)NC1(C)CCCN(Cc2cc(-c3ccc(O)cc3F)nc3[nH]nc(C)c23)C1", "note": "(stereo not drawn) [Example 81, N-{1-[6-(2-Fluoro-4-hydroxy-phenyl)-3-methyl-1H-pyrazolo[3,4-b]pyridin-4-ylmethyl]-3-methyl-piperidin-3-yl}-2-methoxy-acetamide]", "inhibition at 1.14 µM": 97}
{"smiles": "COCC(=O)N1CC(C)N(Cc2cc(-c3ccc(O)cc3)nc3[nH]nc(C)c23)CC12CCCC2", "note": "(stereo not drawn) [Example 82, 1-{9-[6-(4-Hydroxy-phenyl)-3-methyl-1H-pyrazolo[3,4-b]pyridin-4-ylmethyl]-8-methyl-6,9-diaza-spiro[4.5]dec-6-yl}-2-methoxy-ethanone]", "inhibition at 1.14 µM": 85}
